Assay results as given in patent publication US20090053807A1 (Novo Nordisk A/S, priority 1998, published 2009).
Read-outs that look alike come from different tables or passages of the source. Values belong to the compound of their own block, whether it stands above or below them. Positions of bridges follow the written chain, without caps; N, C: chain ends. Residues, ends and D or L forms follow the SMILES beside them. No end group written: not given here.

Key:
[1] = biological target: T1, human insulin receptor (HIR) (Homo sapiens, UniProt P06213); test: Insulin receptor binding, competition with 125I-labeled insulin (radio-receptor assay); conditions: for HIR binding affinity: comparison with monomers / homodimers; for Kd: HIR binding affinity of synthetic peptides
T1 construct: made in house

free fat cells = test: Adipocyte / free fat cell (FFC) assay, 3H glucose incorporation into lipid; conditions: for FFC Pot.: agonist or antagonist / FFC Pot.: Table 8; for FFC Pot.: potency
[2] = biological target: T2, soluble human insulin receptor-immunoglobulin heavy chain chimera (sIR-Fc) (Homo sapiens, UniProt P06213); test: Fluorescence polarization competition with FITC-RP9, sIR-Fc; assay type: binding; conditions: for affinity / potency at IR: FP, FITC-RP9, summary of Table 22; for Bndg Ratio IGF-1R/1R: higher values indicated higher affinity for IR than IGF-1R
T2 construct: replacing the transmembrane domain and the intracellular domain of IR with constant domains from immunoglobulin Fc or λ subunits; made in house; host or cells: human embryonic kidney 293 cells (as described for the Bass construct)

[3] = biological target: His-tagged soluble recombinant human IGF-1R (srhIGF-1R-his) (Homo sapiens, UniProt P08069); test: ALPHAScreen binding assay, competition with b-hIGF-1; conditions: Table 29
MCF-7 cells [4] = test: MCF-7 cell proliferation assay, agonist format; assay type: cell-based, human
[5] = system: FDC-P2 cells expressing the IL-3 and human IGF-1R receptors; conditions: for ED50, agonist activity at IGF-1R / agonist activity at IGF-1R / ED50 Growth / Max Action: FDC-P2 cells; for ED50 Growth: agonist format; for ED50 Growth / Max Action: Table 15
[6] = system: FDC-P2 cells expressing the IL-3 and human IGF-1R receptors; test: IGF-1 proliferation assay in FDC-P2 cells, antagonist format
[7] = biological target: soluble human insulin mini-receptor (mIR) (Homo sapiens, UniProt P06213, DEL496-730); test: Fluorescence polarization competition with FITC-RP9, mIR; assay type: binding; conditions: target mIR, label FITC-RP9, FP
IGF-1R [8] = biological target: T3, IGF-1R (Homo sapiens, UniProt P08069); conditions: for binding ratio for IGF-1R over IR: TR-FRET at rhIGF-1R versus FP at sIR-Fc, summary of Table 22
[9] = biological target: recombinant human insulin receptor (Homo sapiens, UniProt P06213); test: Substrate phosphorylation assay (HIR kinase); assay type: biochemical; conditions: for Kinase Pot. (nM): potency, Table 8
Protocol: Subsequently, a 2000-fold dilution of horseradish peroxidase (HRPO) conjugated phosphotyrosine antibody (Transduction Laboratories, Cat. No. E120H) in TBS was added. The plates were incubated for 30 min and washed 3 times with TBS. TMB (3,3′,5,5′-tetramethylbenzidine; Kem-En-Tec, Copenhagen, Denmark) was added. One substrate from Kem-En-Tec was added. After 10^−15 min, the reaction was stopped by the addition of 1% acetic acid. The absorbance, representing the extent of substrate phosphorylation, was measured in a spectrophotometer at a wavelength of 450 nm.

MiaPaCa cells = test: MiaPaCa cell proliferation assay, agonist format; assay type: cell-based, human; conditions: serum-free conditions
MCF-7 cells [10] = test: MCF-7 cell proliferation assay, antagonist format (50 nM IGF-1); conditions: proliferation assays in the presence of IGF-1 using MCF-7 and MiaPaCa cells; Table 23
IR = biological target: T4, IR (Homo sapiens, UniProt P06213); test: Phage ELISA, binding of phage clones to IR (ratio over background); conditions: ratio of IR divided by ratio of IGF-1R
T4 construct: replacing the transmembrane domain and the intracellular domain of IR with constant domains from immunoglobulin Fc or λ subunits; made in house; host or cells: human embryonic kidney 293 cells (as described for the Bass construct)

IGF-1R [11] = biological target: T3, IGF-1R; test: Phage ELISA, binding of phage clones to IGF-1R (ratio over background); design: included the heterotetrameric (alpha 2-beta 2) extracellular domain of IGF-1R isolated from a mouse myeloma cell line; purchased R&D Systems 391-GR/CF; host or cells: mouse myeloma cell line; conditions: ratio of IGF-1R divided by ratio of IR
IGF-1R [12] = biological target: T3, IGF-1R; test: TR-FRET, dissociation of biotinylated-20E2 from IGF-1R; assay type: binding; conditions: peptides 100 μM, IGF-1 30 μM
Protocol: Best fit non-linear regression analysis of the data, was used to determine dissociation rate constants. Each data point represents a single observation.
Reactions were allowed to reach equilibrium for 6 h at RT.

[13] = biological target: insulin receptor construct transfected into 32D cells (Homo sapiens, UniProt P06213); test: IR autophosphorylation assay in IR transfected 32D cells (ELISA); conditions: MBP fusion peptides, FIG. 30
[14] = in the presence of a stimulating concentration of insulin
[15] = standard concentration of insulin

Compound: GRVDWLQRNANFYDWFVAELG [Peptide S175]
Hill [7]: −1.72
EC50 [5]: 10 µM
ED50, agonist activity at IGF-1R [5]: > 10 µM
agonist activity at IGF-1R [5]: IGF-1R agonist activity

Compound: PPWGARFYDAIEQLVFDNL [RP4]
affinity / potency at IR [2]: high affinities for IR
Bndg Ratio IGF-1R/1R [2]: 476
IC50 ([2]; vs. FITC-RP9, Table 22, read-out: FP sIR-Fc IC50): 0.017 µM
IC50 (IGF-1R [8]): 8.1 µM
binding ratio for IGF-1R over IR (IGF-1R [8]): high binding ratios for IGF-1R over IR

Compound: MADYKDDDDKGSLDESFYDWFERQLGKKGGSGGSGGSGGSWLDQEWAWVQCEVYGRGCPSAAA(ETAG)PG [Peptide 538]
HIR binding affinity [1]: substantially higher (several orders of magnitude) affinity
Kinase Pot. (nM) [9]: Inactive
activity in the FFC assay / at IR (free fat cells): specific insulin receptor antagonists
FFC Pot.: agonist or antagonist (free fat cells): N
activity in the FFC assay (free fat cells; [14]): antagonists
FFC Pot. (free fat cells): 10 nM
activity in the FFC assay (free fat cells; [15]): inactive

Compound: MADYKDDDDKWLDQEWAWVQCEWGRGCPSGGSGGSGSLDESFYDWFERQLGKKAAA(ETAG)PG [Peptide 539]
HIR binding affinity [1]: substantially higher (several orders of magnitude) affinity
activity in the HIR kinase assay [9]: more active
activity in the FFC assay / at IR (free fat cells): full agonist
FFC Pot. (free fat cells): 10 nM

Compound: IGF-1: Insulin-like growth factor 1, from PeproTech; control
ED50, proliferation (MCF-7 cells [4]; MCF-7, serum-free conditions): 0.005 µM
ED50, proliferation (MiaPaCa cells): 0.005 µM

Compound: WLDQERAWLWCEISGRGCLSGGSGGSGSLDESFYDWFERQLGKK (disulfide 11-18 (inferred)) [D815-RP9 6 aa]
ED50 Growth [5]: 50 nM
Max Action [5]: >50%

Compound: CC(C)C[C@@H]1NC(=O)[C@@H](NC(=O)[C@H](CO)NC(=O)[C@H](Cc2ccc(O)cc2)NC(=O)[C@H](Cc2ccccc2)NC(=O)[C@@H](N)CO)CSSC[C@@H](C(=O)N[C@@H](CCCNC(=N)N)C(=O)N[C@@H](CCCCN)C(=O)N[C@@H](CCCCN)C(=O)O)NC(=O)CNC(=O)[C@H](CC(=O)O)NC(=O)[C@H](Cc2c[nH]c3ccccc23)NC(=O)[C@H](CCC(N)=O)NC(=O)CNC(=O)[C@H](CCCNC(=N)N)NC(=O)[C@H](CO)NC(=O)[C@H](CCCCN)NC(=O)[C@H](CCC(=O)O)NC(=O)[C@H](C)NC(=O)[C@@H]2CCCN2C(=O)CNC(=O)[C@H](CC(N)=O)NC(=O)[C@H](C(C)C)NC(=O)[C@H](CC(C)C)NC(=O)[C@H](CO)NC(=O)[C@H](CCC(=O)O)NC1=O [RP33-IGF with KK]
Activ. (MCF-7 cells [10]): Antag.

Compound: FYVQQYWGHENFYDWFDRQVSQSGGAG [H2CA-4-P1-IGFR]
Comparisons IR/IGF-1R (IR): 0.3
Comparisons IGF-1R/IR (IGF-1R [11]): 3.8

Compound: MADYKDDDDKGSLDESFYDWFERQLGKKGGSGGSWLDQEWAWVQCEVYGRGCPSAAA(ETAG)PG [Peptide 537]
HIR binding affinity [1]: substantially higher (several orders of magnitude) affinity
Kinase Pot. (nM) [9]: Inactive
activity in the FFC assay / at IR (free fat cells): specific insulin receptor antagonists
FFC Pot.: agonist or antagonist (free fat cells): N
activity in the FFC assay (free fat cells; [14]): antagonists
FFC Pot. (free fat cells): 10 nM
activity in the FFC assay (free fat cells; [15]): inactive

Compound: DYKDFYDAIDQLVRGSARAGGTRD [20E2(D118)]
Bndg Ratio IGF-1R/1R [2]: 1.9
IC50 (IGF-1R [8]; read-out: TR-FRET rhIGF-1R IC50, vs. b-20E2, Table 22): 0.1 µM

Compound: WLDQERAWLWCEISGRGCLSGGSGGSGGSGGSGSLDESFYDWFERQLGKK (disulfide 11-18 (inferred)) [D815-RP9 12 aa]
ED50 Growth [5]: 10,000 nM
Max Action [5]: 100%

Compound: FHENFYDWFVQRVSKK [Peptide H2C]
Hill [7]: −0.89
affinity / potency at IR [2]: slightly less potent
rate of dissociation of b-20E2 (IGF-1R [12]): similar
binding ratio for IGF-1R over IR (IGF-1R [8]): lower binding ratios for IGF-1R over IR
stimulation of autophosphorylation of IR [13]: stimulate autophosphorylation of IR

More lines, main results first:

HIR binding affinity [1]: increased HIR binding affinity
Compound: WFGYAWLS-NH2 (C-terminus assumed) [Peptide S317]
activity in the FFC assay / at IR (free fat cells): increased potency in FFC assays
FEC (free fat cells; FFC assay potency, number of + grades agonist potency): 0

affinity / potency at IR [2]: less potent
IC50 [3]: 0.6 µM
Compound: GIISQSCPESFYDWFAGQVSDPWWCW [Peptide G33]
IGF-1R agonist activity (MCF-7 cells [4]; MCF-7 and MiaPaCa cell proliferation (Tables 27-28)): IGF-1R agonist activity
ED50, agonist activity at IGF-1R [5]: ~10 µM
agonist activity at IGF-1R [5]: IGF-1R agonist activity
ED50 Growth [5]: 500 nM
Max Action [5]: >50%
FDC-P2 Agonist ([5]; Table 30): +
antagonist activity at IGF-1R [6]: no antagonist activity

Kd [1]: 0.081 µM
Compound: GSLDESFYDWFERQL [Peptide S395]

Kd [1]: 1.6 µM
Compound: CC(C)C[C@H](NC(=O)[C@@H](N)CCC(N)=O)C(=O)N[C@@H](CCC(=O)O)C(=O)N[C@@H](CCC(=O)O)C(=O)N[C@@H](CCC(=O)O)C(=O)N[C@@H](Cc1c[nH]c2ccccc12)C(=O)N[C@@H](C)C(=O)NCC(=O)N[C@H](C(=O)N[C@@H](CCC(N)=O)C(=O)N[C@H]1CSSC[C@@H](C(=O)N2CCC[C@H]2C(=O)N[C@@H](CO)C(=O)O)NC(=O)[C@H](CCC(=O)O)NC(=O)[C@H](CCCNC(=N)N)NC(=O)CNC(=O)[C@H](Cc2ccc(O)cc2)NC(=O)[C@H](C(C)C)NC(=O)[C@H](CCC(=O)O)NC1=O)C(C)C [Peptide S226] (HELM PEPTIDE1{Q.L.E.E.E.W.A.G.V.Q.C.E.V.Y.G.R.E.C.P.S}$PEPTIDE1,PEPTIDE1,11:R3-18:R3$$$V2.0; N-terminus and C-terminus assumed; bridges inferred)

Kd [1]: 2 µM
Compound: HDPFYSMMKSLLK [Peptide S120]

Kd [1]: 2.8 µM
Compound: CC[C@@H](C)[C@@H](NC(=O)[C@H](CCC(=O)O)NC(=O)[C@H](CC(=O)O)NC(=O)[C@H](Cc1ccccc1)NC(=O)[C@H](Cc1c[nH]c2ccccc12)NC(=O)[C@H](CCC(=O)O)NC(=O)[C@H](Cc1ccc(O)cc1)NC(=O)[C@H](Cc1ccccc1)NC(=O)[C@H](CCC(=O)O)NC(=O)[C@H](CCCCN)NC(=O)[C@H](CC(N)=O)NC(=O)[C@H](CC(N)=O)NC(=O)[C@@H](N)CCCCN)C(=O)NCC(=O)N[C@H](CCC(N)=O)C(=O)O [Peptide S320] (HELM PEPTIDE1{K.N.N.K.E.F.Y.E.W.F.D.E.[dI].G.[dQ]}$$$$V2.0; N-terminus and C-terminus assumed)

Hill [7]: −0.94
Compound: CC(C)C[C@H](NC(=O)[C@H](CCC(N)=O)NC(=O)[C@H](CCCNC(=N)N)NC(=O)[C@H](CCC(=O)O)NC(=O)[C@H](Cc1ccccc1)NC(=O)[C@H](Cc1c[nH]c2ccccc12)NC(=O)[C@H](CC(=O)O)NC(=O)[C@H](Cc1ccc(O)cc1)NC(=O)[C@H](Cc1ccccc1)NC(=O)[C@H](CO)NC(=O)[C@@H](N)CCC(=O)O)C(=O)NCC(=O)O [Peptide S390]
activity in the FFC assay / at IR (free fat cells): potency similar to full-length RP9 monomer peptides

Kd [1]: 1.8 µM
Compound: SLNFYDALQLLAKK [Peptide S119]
